Laboratory results published in ChEMBL document CHEMBL1201862, “PubChem BioAssay data set” (2004).
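Dose response: 5 concentrations. Exposure: 48 h. Format: 96-well plates. Endpoint: linear interpolation; highest concentration if not reached. Abbreviation: GI50, concentration required for 50% inhibition of growth.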 Activity calls are given as the source filed them. Cut-off read from the data, not from the text of the source: active = GI50 up to about 1.1 µM and inactive = higher.

How the values were obtained:
Test in all cases: NCI tumour cell line growth inhibition, 48 h
EKVX = tested on: EKVX
NCI-H522 = tested on: NCI-H522
SNB-78 = tested on: SNB-78
HOP-92 = tested on: HOP-92
A498 = tested on: A498
LOX IMVI = tested on: LOX IMVI
HOP-62 = tested on: HOP-62
SK-MEL-2 = tested on: SK-MEL-2
Malme-3M = tested on: Malme-3M
SNB-19 = tested on: SNB-19
SF-268 = tested on: SF-268
OVCAR-3 = tested on: OVCAR-3
SK-MEL-28 = tested on: SK-MEL-28
NCI-H226 = tested on: NCI-H226
HCC 2998 = tested on: HCC 2998
HL-60 = tested on: HL-60
IGROV-1 = tested on: IGROV-1
CAKI-1 = tested on: CAKI-1
M14 = tested on: M14
TK-10 = tested on: TK-10

SMILES: O=C1ON(Cc2ccccc2)C(c2ccccc2)N1c1ccccc1 (centres undefined)
- GI50 (EKVX): > 100 µM (inactive)
- GI50 (NCI-H522): > 100 µM (inactive)
- GI50 (SNB-78): > 100 µM (inactive)
- GI50 (HOP-92): > 100 µM (inactive)
- GI50 (A498): > 100 µM (inactive)
- GI50 (LOX IMVI): > 100 µM (inactive)
- GI50 (HOP-62): > 100 µM (inactive)
- GI50 (SK-MEL-2): > 100 µM (inactive)
- GI50 (Malme-3M): > 100 µM (inactive)
- GI50 (SNB-19): > 100 µM (inactive)
- GI50 (SF-268): > 100 µM (inactive)
- GI50 (OVCAR-3): > 100 µM (inactive)
- GI50 (SK-MEL-28): > 100 µM (inactive)
- GI50 (NCI-H226): 99.1 µM (inactive)
- GI50 (HCC 2998): > 100 µM (inactive)
- GI50 (HL-60): > 70.5 µM (inactive)
- GI50 (IGROV-1): > 100 µM (inactive)

SMILES: O=NN1C(c2ccccc2)CCCC1c1ccccc1 (centres undefined)
- GI50 (CAKI-1): 97.7 µM (inactive)
- GI50 (EKVX): > 62.2 µM (inactive)
- GI50 (NCI-H522): 23.4 µM (inactive)
- GI50 (SNB-78): 46.2 µM (inactive)
- GI50 (HOP-92): 36.4 µM (inactive)
- GI50 (A498): 15.1 µM (inactive)
- GI50 (LOX IMVI): 74.8 µM (inactive)
- GI50 (HOP-62): > 100 µM (inactive)
- GI50 (SK-MEL-2): 45.9 µM (inactive)
- GI50 (Malme-3M): > 65.5 µM (inactive)
- GI50 (SNB-19): > 100 µM (inactive)
- GI50 (SF-268): > 100 µM (inactive)
- GI50 (OVCAR-3): > 41.8 µM (inactive)
- GI50 (SK-MEL-28): > 100 µM (inactive)
- GI50 (NCI-H226): > 100 µM (inactive)
- GI50 (HCC 2998): 80.4 µM (inactive)
- GI50 (HL-60): 26.8 µM (inactive)
- GI50 (IGROV-1): > 89.7 µM (inactive)

SMILES: O=C(/C=C/c1cccc2ccccc12)c1ccccc1Cl
- GI50 (CAKI-1): 14.4 µM (inactive)
- GI50 (M14): 15.5 µM (inactive)
- GI50 (EKVX): 15.1 µM (inactive)
- GI50 (NCI-H522): 14.4 µM (inactive)
- GI50 (SNB-78): 19.6 µM (inactive)
- GI50 (HOP-92): 13 µM (inactive)
- GI50 (A498): 16 µM (inactive)
- GI50 (HOP-62): 18.6 µM (inactive)
- GI50 (SK-MEL-2): 19.3 µM (inactive)
- GI50 (Malme-3M): 16.4 µM (inactive)
- GI50 (SNB-19): 14.1 µM (inactive)
- GI50 (SF-268): 18.4 µM (inactive)
- GI50 (OVCAR-3): 12.9 µM (inactive)
- GI50 (SK-MEL-28): 19.1 µM (inactive)
- GI50 (NCI-H226): > 100 µM (inactive)
- GI50 (HCC 2998): 15.2 µM (inactive)
- GI50 (TK-10): 14.6 µM (inactive)
- GI50 (HL-60): 2.65 µM (inactive)
- GI50 (IGROV-1): 16.6 µM (inactive)

SMILES: Cc1ccc(NC(=O)CC(=O)n2nc(-c3ccccc3)c(/N=N/c3ccccc3Cl)c2-c2ccccc2)cc1
- GI50 (CAKI-1): 42.6 µM (inactive)
- GI50 (M14): 88.3 µM (inactive)
- GI50 (EKVX): 88.9 µM (inactive)
- GI50 (NCI-H522): 65.8 µM (inactive)
- GI50 (SNB-78): > 10 µM (inactive)
- GI50 (HOP-92): 23.6 µM (inactive)
- GI50 (A498): 34 µM (inactive)
- GI50 (LOX IMVI): 92.5 µM (inactive)
- GI50 (HOP-62): 83.8 µM (inactive)
- GI50 (SK-MEL-2): > 10 µM (inactive)
- GI50 (Malme-3M): 48.3 µM (inactive)
- GI50 (SNB-19): 38.8 µM (inactive)
- GI50 (SF-268): > 10 µM (inactive)
- GI50 (OVCAR-3): > 10 µM (inactive)
- GI50 (SK-MEL-28): 62.2 µM (inactive)
- GI50 (NCI-H226): > 10 µM (inactive)
- GI50 (HCC 2998): > 10 µM (inactive)
- GI50 (TK-10): 83.9 µM (inactive)
- GI50 (HL-60): 0.458 µM (active)
- GI50 (IGROV-1): > 10 µM (inactive)

SMILES: C[C@]12CCC(=O)C(O)=C1CC[C@@H]1[C@@H]2CC[C@]2(C)C(=O)CC[C@@H]12 [FORMESTANE]
- GI50 (CAKI-1): > 92.9 µM (inactive)
- GI50 (M14): > 100 µM (inactive)
- GI50 (EKVX): > 88.9 µM (inactive)
- GI50 (NCI-H522): > 100 µM (inactive)
- GI50 (SNB-78): > 100 µM (inactive)
- GI50 (HOP-92): > 81.8 µM (inactive)
- GI50 (A498): > 84.5 µM (inactive)
- GI50 (LOX IMVI): > 100 µM (inactive)
- GI50 (HOP-62): > 100 µM (inactive)
- GI50 (SK-MEL-2): > 100 µM (inactive)
- GI50 (Malme-3M): > 100 µM (inactive)
- GI50 (SNB-19): > 100 µM (inactive)
- GI50 (SF-268): > 100 µM (inactive)
- GI50 (OVCAR-3): > 100 µM (inactive)
- GI50 (SK-MEL-28): > 100 µM (inactive)
- GI50 (NCI-H226): > 100 µM (inactive)
- GI50 (HCC 2998): > 100 µM (inactive)
- GI50 (TK-10): > 100 µM (inactive)
- GI50 (HL-60): > 80.9 µM (inactive)
- GI50 (IGROV-1): > 100 µM (inactive)
